Measured values reported in patent publication US20050176764A1, “Medicine for treating cancer” (KOWA CO., LTD, priority 2002, published 2005).
Structures can show the parent of a compound that is named as a salt.

How the values were obtained:
Type in all cases: cell-based
[1] = system: Human umbilical venous endothelial cells (HUVECs); test: Gene expression analysis (GeneChip HuGene FL array) in TNFα-stimulated HUVECs; settings: Example 10 at 1 μM, TSA at 10 μM
Protocol: Human umbilical venous endothelial cells (HUVECs) were placed in 10 cm dishes (3×10^5 cells/dish). Two days thereafter, Trichostatin A (TSA, produced by Upstate) dissolved in dimethyl sulfoxide (DMSO) and the compound prepared in Example 10 dissolved in DMSO were individually added to a final concentrations of 10 μM and 1 μM, respectively. Each sample was stimulated with TNFα (final concentration: 10 ng/mL, Genzyme-Techne). Four hours later, total RNA was extracted with ISOGEN (Nippon Gene Co., Ltd.). The subsequent procedure was performed in accordance with the manufacturer's protocol (Affymetrix). From the thus obtained total RNA, mRNA was purified by a conventional method. cDNA was synthesized from the purified mRNA, and then biotin-labeled cRNA was synthesized by in vitro transcription. The cRNA was purified and subjected to heat treatment for fragmentation. The fragmented cRNA was used in gene expression analysis.
Method of gene expression analysis: The thus-prepared fragmented cRNA was injected to a HuGene human FL array (Affymetrix), and allowed to hybridize for 16 hours at 45° C. After washing, streptavidin labeled with phycoerythrin, and biotinylated anti-streptavidin antibody were added to each sample in order to cause reaction. Gene expression information was read by use of a dedicated scanner for GeneChip™ (Hewlett Packard). The thus-obtained information was analyzed with GeneChip Software (Affymetrix) for comparison in terms of level of expression.

[2] = system: ACHN (renal cancer); test: Cancer cell growth inhibition, sulforhodamine B colorimetry; settings: incubation two days
Protocol: (§1) Cultured human cancer cells were placed in a 96-well plate. On the following day, a solution of the compound prepared in Example 10 (in five concentrations resulting from 10-fold stepwise dilution: 10^−4, 10^−5, 10^−6, 10^−7, or 10^−8 M) was added, followed by incubation for two days. Cell count after growth was determined in each plate through colorimetry using sulforhodamine B. The concentration at which the cell count after growth was inhibited to 50% of that of the cell count of the control (in the absence of the compound prepared in Example 10) was calculated (GI50). Simultaneously, on the basis of the cell count just before addition of the compound prepared in Example 10 (time zero), the following value (concentration) was calculated. • TGI: a concentration at which cell growth is inhibited to a cell count equal to that at time zero (concentration at which no change in cell count is observed) • LC50: a concentration at which cell count is reduced to 50% of the cell count at time zero (cell-killing effect).

[3] = system: DMS114 (lung cancer); test: as above; settings: DMS114, incubation two days
Protocol: as §1

[4] = system: HCC2998 (colon cancer); test: as above; settings: HCC2998, incubation two days
Protocol: as §1

[5] = system: LOX-IMVI (melanoma); test: as above; settings: incubation two days
Protocol: as §1

[6] = system: MCF-7 (breast cancer); test: as above; settings: MCF-7, incubation two days
Protocol: as §1

[7] = system: MKN74 (stomach cancer); test: as above; settings: MKN74, incubation two days
Protocol: as §1

[8] = system: OVCAR-3 (ovarian cancer); test: as above
Protocol: as §1

[9] = system: PC-3 (prostatic carcinoma); test: as above; settings: PC-3, incubation two days
Protocol: as §1

[10] = system: SF-539 (brain tumor); test: as above; settings: SF-539, incubation two days
Protocol: as §1

[11] = system: cultured human cancer cells; test: Cancer cell growth inhibition, sulforhodamine B colorimetry, overall statement; settings: result in words
Protocol: as §1

[12] = out of 52 genes increased twice or more by TNFα
[13] = Homo sapiens, 48 h, read-out: LC50 (the source's name)

Compound: COc1ccc(N(Cc2ccnc(-c3cc(OC)c(OC)c(OC)c3)c2)C2CCN(Cc3ccnc(-c4cc(OC)c(OC)c(OC)c4)c3)CC2)cc1 [Example 10, 4-[N-(4-methoxyphenyl)-N-[[2-(3,4,5-trimethoxypheny)pyridin-4-yl]methyl]amino]-1-[[2-(3,4,5-trimethoxyphenyl)pyridin-4-yl]methyl]piperidine Trihydrochloride]
- mRNA expression level of ABC transporter B2 ([1]; TNFα 10 ng/mL, 4 h): 69
- mRNA expression level of B94 ([1]; TNFα 10 ng/mL, 4 h): 1010
- mRNA expression level of BCL3 ([1]; TNFα 10 ng/mL, 4 h): 125
- mRNA expression level of Cox-2 ([1]; TNFα 10 ng/mL, 4 h): 0
- mRNA expression level of EphrinA1 ([1]; TNFα 10 ng/mL, 4 h): 148
- mRNA expression level of Gro1 ([1]; TNFα 10 ng/mL, 4 h): 614
- mRNA expression level of I kappa B alpha ([1]; TNFα 10 ng/mL, 4 h): 1259
- mRNA expression level of IAP homolog B ([1]; TNFα 10 ng/mL, 4 h): 42
- mRNA expression level of ICAM-1 ([1]; TNFα 10 ng/mL, 4 h): 2174
- mRNA expression level of IFNGR2 ([1]; TNFα 10 ng/mL, 4 h): 186
- mRNA expression level of IL-7R ([1]; TNFα 10 ng/mL, 4 h): 44
- mRNA expression level of M-Ras-regulated GEF ([1]; TNFα 10 ng/mL, 4 h): 37
- mRNA expression level of MCP-1 ([1]; TNFα 10 ng/mL, 4 h): 43
- mRNA expression level of Na/K-ATPase beta-1 ([1]; TNFα 10 ng/mL, 4 h): 78
- mRNA expression level of Nef associated factor 1 ([1]; TNFα 10 ng/mL, 4 h): 496
- mRNA expression level of OB-cadherin-2 ([1]; TNFα 10 ng/mL, 4 h): 24
- mRNA expression level of RDC1 ([1]; TNFα 10 ng/mL, 4 h): 27
- mRNA expression level of Spliceosomal Protein Sap 49 ([1]; TNFα 10 ng/mL, 4 h): 40
- mRNA expression level of TRAF1 ([1]; TNFα 10 ng/mL, 4 h): 88
- mRNA expression level of VCAM-1 ([1]; TNFα 10 ng/mL, 4 h): 83
- mRNA expression level of beta-galactoside alpha-2; 6-sialyltransferase ([1]; TNFα 10 ng/mL, 4 h): 14
- mRNA expression level of caspase-like apoptosis regulatory protein 2 (clarp) ([1]; TNFα 10 ng/mL, 4 h): 76
- mRNA expression level of cytoplasmic antiproteinase 2 (CAP2) ([1]; TNFα 10 ng/mL, 4 h): 78
- mRNA expression level of ets-2 ([1]; TNFα 10 ng/mL, 4 h): 90
- mRNA expression level of exodus-1 ([1]; TNFα 10 ng/mL, 4 h): 310
- mRNA expression level of fractalkine ([1]; TNFα 10 ng/mL, 4 h): 7
- mRNA expression level of junB ([1]; TNFα 10 ng/mL, 4 h): 210
- mRNA expression level of lymphotoxin beta ([1]; TNFα 10 ng/mL, 4 h): −56
- mRNA expression level of metalloproteinase stromelysin-2 ([1]; TNFα 10 ng/mL, 4 h): 54
- mRNA expression level of ninjurin1 ([1]; TNFα 10 ng/mL, 4 h): 135
- mRNA expression level of p50-NF-kappa B homolog ([1]; TNFα 10 ng/mL, 4 h): 33
- number of genes whose expression was enhanced [1, 12]: 6 genes
- number of genes whose expression was inhibited [1, 12]: 25 genes
- GI50 ([2]; Homo sapiens, 48 h): 1.9 µM
- CC50 [2, 13]: > 100 µM
- TGI [2]: >100 µM
- TGI [3]: 2.6 µM
- GI50 ([3]; Homo sapiens, DMS-114, 48 h): 0.038 µM
- CC50 ([3]; Homo sapiens, DMS-114, 48 h, read-out: LC50 (the source's name)): > 100 µM
- TGI [4]: 10 µM
- GI50 ([4]; Homo sapiens, HCC 2998, 48 h): 0.33 µM
- CC50 ([4]; Homo sapiens, HCC 2998, 48 h, read-out: LC50 (the source's name)): 40 µM
- GI50 ([5]; Homo sapiens, 48 h): 0.18 µM
- CC50 [5, 13]: 41 µM
- TGI [5]: 1.2 µM
- GI50 ([6]; Homo sapiens, MCF7, 48 h): 0.16 µM
- CC50 ([6]; Homo sapiens, MCF7, 48 h, read-out: LC50 (the source's name)): > 100 µM
- TGI [6]: >100 µM
- GI50 ([7]; Homo sapiens, MKN-74, 48 h): 0.026 µM
- CC50 ([7]; Homo sapiens, MKN-74, 48 h, read-out: LC50 (the source's name)): > 100 µM
- TGI [7]: 0.56 µM
- GI50 ([8]; Homo sapiens, 48 h, OVCAR-3, incubation two days): 0.35 µM
- CC50 ([8]; Homo sapiens, OVCAR-3, 48 h, read-out: LC50): > 100 µM
- TGI ([8]; OVCAR-3, incubation two days): 39 µM
- GI50 ([9]; Homo sapiens, 48 h): 26.3 µM
- CC50 [9, 13]: > 100 µM
- TGI [9]: >100 µM
- GI50 ([10]; Homo sapiens, 48 h): 0.83 µM
- LC50 (concentration reducing cell count to 50% of time-zero count) ([10]; Homo sapiens, 48 h): > 100 µM
- TGI [10]: >100 µM
- growth inhibitory effect on cultured human cancer cells [11]: strong growth inhibitory effect
